Patent US20250145561A1, “4-SUBSTITUTED-PHENYL ACETAMIDES AND ARYLUREAS AS AGONISTS FOR THE ORPHAN RECEPTOR GPR88” (RESEARCH TRIANGLE INSTITUTE, priority 2022, published 2025)

Molecular target: T1, GPR88 (Homo sapiens, UniProt Q9GZN0)
T1 construct: expressed in transfected cells
Experiment: Lance Ultra TR-FRET cAMP assay using stable PPLS-HA-GPR88 CHO cells
Format: cell-based
Conditions: for Emax: CHO; for EC50 / cAMP pEC50: stable PPLS-HA-GPR88 CHO cells; for EC50: value in parentheses beside pEC50; for cAMP pEC50: 300 nM forskolin, mean ± standard error of at least three independent experiments in duplicate
Protocol: The compounds of the present disclosure offer potent agonism to the orphan receptor GPR88. As such, the compounds of the present disclosure provide therapeutic potential for the treatment of striatal associated disorders such as Parkinson's disease, schizophrenia, and alcohol addiction. All compounds were evaluated for the GPR88 agonist activity in the inventors' previously established in vitro GPR88 Lance TR-FRET cAMP assay. See, supra, Jin et al., 2018, Rahman et al., 2020, and Rahman et al., 2021. As will be described, the TR-FRET signal was converted to fmol cAMP by interpolating from the standard cAMP curve. Fmol cAMP was plotted against the log of compound concentration and data were fit to a three-parameter logistic curve to generate maximum response (Emax) and EC50 values.
Lance™ Ultra cAMP assay using stable PPLS-HA-GPR88 CHO cells. All cAMP assays were performed using the inventors' previously published methods. […] ACS Chemical Neuroscience 2016, 7, 1418-1432, which is incorporated by reference herein with regard to such teaching. Stimulation buffer containing 1× Hank's Balanced Salt Solution (HBSS), 5 mM HEPES, 0.1% BSA stabilizer, and 0.5 mM final IBMX was prepared and titrated to pH 7.4 at room temperature. Serial dilutions of the test compounds (5 μL) and 300 nM forskolin (5 μL), both prepared at 4× the desired final concentration in 2% DMSO/stimulation buffer, were added to a 96-well white ½ area microplate (PerkinElmer). A cAMP standard curve was prepared at 4× the desired final concentration in stimulation buffer and 5 μL was added to the assay plate. Stable PPLS-HA-GPR88 CHO cells were lifted with versene and spun at 270 g for 10 minutes. The cell pellet was resuspended in stimulation buffer and 4,000 cells (10 μL) were added to each well except wells containing the cAMP standard curve. After incubating for 30 min at room temperature, Eu-cAMP tracer and uLIGHT-anti-cAMPworking solutions were added per the manufacturer's instructions. After incubation at room temperature for 1 hour, the TR-FRET signal (ex 337 nm) was read on a CLARIOstar multimode plate reader (BMG Biotech, Cary, NC).
Data Analysis. The TR-FRET signal (665 nm) was converted to fmol cAMP by interpolating from the standard cAMP curve. Fmol cAMP was plotted against the log of compound concentration and data were fit to a three-parameter logistic curve to generate EC50 values (Prism, version 6.0, GraphPad Software, Inc., San Diego, CA).

T1 sequence (Q9GZN0 whole entry): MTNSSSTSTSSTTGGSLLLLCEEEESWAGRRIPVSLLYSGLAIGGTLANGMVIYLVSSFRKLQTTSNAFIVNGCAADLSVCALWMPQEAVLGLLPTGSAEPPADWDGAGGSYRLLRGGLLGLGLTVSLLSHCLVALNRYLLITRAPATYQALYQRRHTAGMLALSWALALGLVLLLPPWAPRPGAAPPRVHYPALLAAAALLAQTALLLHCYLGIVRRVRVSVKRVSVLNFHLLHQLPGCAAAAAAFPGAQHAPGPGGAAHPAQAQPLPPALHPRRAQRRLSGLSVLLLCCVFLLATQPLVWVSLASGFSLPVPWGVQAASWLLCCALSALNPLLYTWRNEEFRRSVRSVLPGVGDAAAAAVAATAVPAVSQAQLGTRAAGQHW

Row | Structure (SMILES) | Emax [%] | EC50 [nM] | cAMP pEC50
1 | CCCc1ccc(-c2ccc([C@@H](Cn3ccnn3)C(=O)N[C@H](C)c3ccccc3)cc2)cc1 [Compound 31, (2S)—N-[(1 R)-1-Phenylethyl]-2-{4′-propyl-[1,1′-biphenyl]-4-yl}-3-(1H-1,2,3-triazol-1-yl)propenamide] | 96 | 631 | –
2 | C[C@@H](NC(=O)[C@H](CO)c1ccc(-c2ccc(C3CCC3)cc2)cc1)c1ccccc1 [Compound 32, (2S)-2-{4′-Cyclobutyl-[1,1′-biphenyl]-4-yl}-3-hydroxy-N-[(1 R)-1-phenylethyl]propenamide] | 74 ± 7 | 355 | –
3 | C[C@@H](NC(=O)[C@H](CO)c1ccc(-c2ccc(CC3CC3)cc2)cc1)c1ccccc1 [Compound 33, (2S)-2-[4′-(Cyclopropylmethyl)-[1,1′-biphenyl]-4-yl]-3-hydroxy-N-[(1 R)-1-phenylethyl]propenamide] | 87 ± 5 | 263 | –
4 | C[C@@H](NC(=O)[C@H](CO)c1ccc(-c2ccc(OC3CC3)cc2)cc1)c1ccccc1 [Compound 34, (2S)-2-{4′-cyclopropoxy-[1,1′-biphenyl]-4-yl}-3-hydroxy-N-[(1 R)-1-phenylethyl]propenamide] | 86 | 245 | –
5 | C[C@@H](NC(=O)[C@H](CO)c1ccc(-c2ccc(OC3CCC3)cc2)cc1)c1ccccc1 [Compound 35, (2S)-2-{4′-Cyclobutoxy-[1,1′-biphenyl]-4-yl}-3-hydroxy-N-[(1 R)-1-phenylethyl]propenamide] | 90 ± 10 | 224 | –
6 | CCCC#Cc1ccc([C@@H](CO)C(=O)N[C@H](C)c2ccccc2)cc1 [Compound 36, (2S)-3-Hydroxy-2-[4-(pent-1-yn-1-yl)phenyl]-N-[(1 R)-1-phenylethyl]propenamide] | 92 ± 7 | 204 | –
7 | CC(C)C#Cc1ccc([C@@H](CO)C(=O)N[C@H](C)c2ccccc2)cc1 [Compound 37, (2S)-3-Hydroxy-2-[4-(3-methylbut-1-yn-1-yl)phenyl]-N-[(1 R)-1-phenylethyl]propenamide] | 102 ± 2 | 479 | –
8 | CCCc1ccc(-c2ccc(N(C[C@@H](N)[C@@H](C)CC)C(=O)Nc3ccccc3)cc2)cc1 [Compound 38, 3-[(2S,3S)-2-Amino-3-methylpentyl]-1-phenyl-3-{4′-propyl-[1,1′-biphenyl]-4-yl}urea] | – | – | Inactive
9 | CCCc1ccc(-c2ccc(N(C[C@@H](N)[C@@H](C)CC)C(=O)N(C)c3ccccc3)cc2)cc1 [Compound 39, 3-[(2S,3S)-2-Amino-3-methylpentyl]-1-methyl-1-phenyl-3-{4′-propyl-[1,1′-biphenyl]-4-yi}urea] | 97 ± 12 | 2820 | –
10 | CCCc1ccc(-c2ccc(N(C[C@@H](N)[C@@H](C)CC)C(=O)NCc3ccccc3)cc2)cc1 [Compound 40, 3-[(2S,3S)-2-Amino-3-methylpentyl]-1-benzyl-3-{4′-propyl-[1,1′-biphenyl]-4-yl}urea] | 97 ± 4 | 2000 | –
11 | CCCc1ccc(-c2ccc(N(C[C@@H](N)[C@@H](C)CC)C(=O)N[C@H](C)c3ccccc3)cc2)cc1 [Compound 41, 3-[(2S,3S)-2-Amino-3-methylpentyl]-1-[(1 R)-1-phenylethyl]-3-{4′-propyl-[1,1′-biphenyl]-4-yl}urea] | – | – | Inactive

Further lines, results first:

Row | Emax [%] | EC50 [nM] | cAMP pEC50 | Structure (SMILES)
12 | 106 ± 10 | 1020 | – | CCCc1ccc(-c2ccc(N(C[C@@H](N)[C@@H](C)CC)C(=O)N[C@@H](C)c3ccccc3)cc2)cc1 [Compound 42, 3-[(2S,3S)-2-Amino-3-methylpentyl]-1-[(1 S)-1-phenylethyl]-3-{4′-propyl-[1,1′-biphenyl]-4-yl}urea]
13 | 108 ± 4 | 1380 | – | CCCCCCc1ccc(N(C[C@@H](N)[C@@H](C)CC)C(=O)N[C@@H](C)c2ccccc2)cc1 [Compound 43, 3-[(2S,3S)-2-Amino-3-methylpentyl]-3-(4-hexylphenyl)-1-[(1 S)-1-phenylethyl]urea]
14 | – | – | Inactive | CCCc1ccc(-c2ccc(N(C[C@@H](N)[C@@H](C)CC)C(=O)N[C@@H]3C[C@H]3c3ccccc3)cc2)cc1 [Compound 44, 1-[(2S,3S)-2-Amino-3-methylpentyl]-3-[(1 R,2S)-2-phenylcyclopropyl]-1-(4′-propyl-[1,1′-biphenyl]-4-yl}urea]
15 | 110 ± 5 | 2290 | – | CCCc1ccc(-c2ccc(N(C[C@@H](N)[C@@H](C)CC)C(=O)N[C@H]3C[C@@H]3c3ccccc3)cc2)cc1 [Compound 45, 1-[(2S,3S)-2-Amino-3-methylpentyl]-3-[(1 S,2R)-2-phenylcyclopropyl]-1-(4′-propyl-[1,1′-biphenyl]-4-yl}urea]
16 | 91 ± 4 | 1860 | – | CCCc1ccc(-c2ccc(N(C[C@@H](N)[C@@H](C)CC)C(=O)NC3(c4ccccc4)CC3)cc2)cc1 [Compound 46, 1-[(2S,3S)-2-Amino-3-methylpentyl]-3-(1-phenylcyclopropyl)-1-{4′-propyl-[1,1′-biphenyl]-4-yl}urea]
17 | 103 ± 4 | 2000 | – | CCCc1ccc(-c2ccc(N(C[C@@H](N)[C@@H](C)CC)C(=O)N[C@@H](CC)c3ccccc3)cc2)cc1 [Compound 47, 3-[(2S,3S)-2-Amino-3-methylpentyl]-1-[(1 S)-1-phenylpropyl]-3-{4′-propyl-[1,1′-biphenyl]-4-yl}urea]
18 | 110 ± 5 | 1550 | – | CCCc1ccc(-c2ccc(N(C[C@@H](N)[C@@H](C)CC)C(=O)N[C@@H](COC)c3ccccc3)cc2)cc1 [Compound 48, 3-[(2S,3S)-2-Amino-3-methylpentyl]-1-[(1 R)-2-methoxy-1-phenylethyl]-3-{4′-propyl-[1,1′-biphenyl]-4-yl}urea]
19 | 115 ± 5 | 2570 | – | CCCc1ccc(-c2ccc(N(C[C@@H](N)[C@@H](C)CC)C(=O)N[C@@H](C)c3ccco3)cc2)cc1 [Compound 49, 1-[(2S,3S)-2-Amino-3-methylpentyl]-3-[(1 S)-1-(furan-2-yl)ethyl]-1-{4′-propyl-[1,1′-biphenyl]-4-yl}urea]
20 | 112 ± 8 | 1200 | – | CCCc1ccc(-c2ccc(N(C[C@@H](N)CC(C)C)C(=O)N[C@@H](C)c3ccccc3)cc2)cc1 [Compound 50, 3-[(2S)-2-Amino-4-methylpentyl]-1-[(1 S)-1-phenylethyl]-3-{4′-propyl-[1,1′-biphenyl]-4-yl}urea]
21 | 129 ± 4 | 1410 | – | CCCc1ccc(-c2ccc(N(C[C@H](N)CC(C)C)C(=O)N[C@@H](C)c3ccccc3)cc2)cc1 [Compound 51, 3-[(2R)-2-Amino-4-methylpentyl]-1-[(1 S)-1-phenylethyl]-3-{4′-propyl-[1,1′-biphenyl]-4-yl}urea]
22 | 107 ± 3 | 1290 | – | CCCc1ccc(-c2ccc(N(C[C@H](C)N)C(=O)N[C@@H](C)c3ccccc3)cc2)cc1 [Compound 52, 3-[(2S)-2-Aminopropyl]-1-[(1 S)-1-phenylethyl]-3-{4′-propyl-[1,1′-biphenyl]-4-yl}urea]
23 | 106 ± 3 | 1740 | – | CCCc1ccc(-c2ccc(N(C[C@@H]3CCCN3)C(=O)N[C@@H](C)c3ccccc3)cc2)cc1 [Compound 53, 1-[(1 S)-1-Phenylethyl]-3-{4′-propyl-[1,1′-biphenyl]-4-yl}-3-{[(2S)-pyrrolidin-2-yl]methyl}urea]
24 | 106 ± 3 | 324 | – | CCCc1ccc(-c2ccc(N(C[C@@H](N)[C@@H](C)OC)C(=O)N[C@@H](C)c3ccccc3)cc2)cc1 [Compound 54, 3-[(2R,3R)-2-Amino-3-methoxybutyl]-1-[(1 S)-1-phenylethyl]-3-{4′-propyl-[1,1′-biphenyl]-4-yl}urea]
25 | 114 ± 6 | 457 | – | CO[C@H](C)[C@H](N)CN(C(=O)N[C@@H](C)c1ccccc1)c1ccc(-c2ccc(C)cc2)cc1 [Compound 55, 3-[(2R,3R)-2-Amino-3-methoxybutyl]-1-[(1 S)-1-phenylethyl]-3-{4′-methyl-[1,1′-biphenyl]-4-yl}urea]
26 | 116 ± 9 | 331 | – | CCc1ccc(-c2ccc(N(C[C@@H](N)[C@@H](C)OC)C(=O)N[C@@H](C)c3ccccc3)cc2)cc1 [Compound 56, 3-[(2R,3R)-2-Amino-3-methoxybutyl]-1-[(1 S)-1-phenylethyl]-3-{4′-ethyl-[1,1′-biphenyl]-4-yl}urea]
27 | 101 ± 3 | 891 | – | COc1ccc(-c2ccc(N(C[C@@H](N)[C@@H](C)OC)C(=O)N[C@@H](C)c3ccccc3)cc2)cc1 [Compound 57, 3-[(2R,3R)-2-Amino-3-methoxybutyl]-1-[(1 S)-1-phenylethyl]-3-{4′-methoxy-[1,1′-biphenyl]-4-yl}urea]
